Marks after values point to notes of the source that are not given here.
Key:
MERS-CoV [1] = settings: in vitro; cited from earlier work
CXCR4 = molecular target: T1, CXCR4 (Mus musculus, UniProt P70658); settings: cited from earlier work
T1 construct: host or cells: BM-MSCs (endogenous receptor)

ER = test: ERE luciferase reporter (ER transcriptional activation) in hASCs
MERS-CoV [2] = settings: in vitro; cited from earlier work; remark: listed apart in the source
MERS-CoV [3] = settings: vs untreated animals; cited from earlier work
MSC migration = settings: cited from earlier work
[4] = test system: myofibroblasts from mouse lungs 21 day post BLM; test: Double transfection of myofibroblasts with miR-29a mimic and miR-199-3p inhibitor; format: cell-based; settings: mouse isolates (data not shown)
[5] = test system: myofibroblasts isolated from lungs of patients with IPF; test: as above; format: cell-based, human
[6] = test system: BLM-induced lung injury in 22-month old male C57BL/6 mice; test: BLM-induced pulmonary fibrosis in aged mice, ASCs given on day 12; format: in vivo, mouse; settings: n = 4-5/group
AR mRNA = AR mRNA expression in lungs of BLM-treated male mice
[7] = double transfection miR-29a mimic + miR-199-3p inhibitor, 48 hours post-transfection
[8] = lung tissue, day 21, ASCs on day 12 post-BLM

T1 sequence (P70658 whole entry): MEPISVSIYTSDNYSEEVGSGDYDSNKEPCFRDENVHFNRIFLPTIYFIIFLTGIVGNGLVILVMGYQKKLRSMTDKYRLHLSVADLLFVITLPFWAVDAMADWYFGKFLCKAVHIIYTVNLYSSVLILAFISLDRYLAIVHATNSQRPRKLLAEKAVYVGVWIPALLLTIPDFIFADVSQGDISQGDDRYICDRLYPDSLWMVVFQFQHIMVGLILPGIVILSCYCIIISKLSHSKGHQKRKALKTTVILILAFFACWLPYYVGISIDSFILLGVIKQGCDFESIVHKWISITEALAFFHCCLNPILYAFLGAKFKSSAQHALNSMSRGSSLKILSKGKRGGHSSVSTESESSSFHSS

Q: With Cc1cccc(C)c1OCC(=O)N[C@@H](Cc1ccccc1)[C@@H](O)C[C@H](Cc1ccccc1)NC(=O)[C@H](C(C)C)N1CCCNC1=O [lopinavir] as the compound, how does the “50% effective cytotoxic concentration (EC50) against MERS-CoV” value (MERS-CoV [1]) read?
A: The value was “suboptimal”.

Q: Which “inhibition of SDF-1 promoted chemotactic migration of BM-MSCs” value (CXCR4) does the source give for TN14003 here?
A: The value was “completely inhibited”.

Q: With C[C@]12CC[C@@H]3c4ccc(O)cc4C[C@@H](CCCCCCCCC[S+]([O-])CCCC(F)(F)C(F)(F)F)[C@H]3[C@@H]1CC[C@@H]2O (stereo partly shown) [ICI 182,780, fulvestrant] as the compound, how does the “block of E2-induced ER transcriptional activation” value (ER; hASCs, with E2 1 or 10 nM) read?
A: Its value is “able to block activation by E2”.

Q: With COc1c(C)c2c(c(O)c1C/C=C(\C)CCC(=O)O)C(=O)OC2 [MPA, Mycophenolic acid] as the compound, how does the “inhibition activity against MERS-CoV” value (MERS-CoV [2]) read?
A: The value was “strong inhibition activity”.

Q: And the “disease outcome and viral loads” value (MERS-CoV [3])?
A: Its value is “developed severe and/or fatal disease with higher mean viral loads”.

Q: For COc1cccc(-c2cc(=O)c3ccccc3o2)c1N [PD98059], which “effect on IGF-1-induced increase in MSC migration in response to SDF-1” value (MSC migration) is on record?
A: The value was “not”.

Q: Which CAV-1 expression [4] does the source give for “miR-199-3p inhibitor: plasmid containing miR-199-3p inhibitor AACCAATGTGCAGACTACTG (SEQ ID NO: 2), Exiqon (described as plasmid-borne inhibitor, chemistry not given here)” here?
A: The CAV-1 expression was “increased CAV-1 expression”.

Q: What about the “downregulation of miR-199-3p expression (RT-PCR)” value ([5]; co-transfection with miR-29a mimic) of the same compound?
A: Its value is “at least 100 fold”.

Q: And the “CAV-1 expression (western)” value [5, 7]?
A: The value was “increased CAV-1 expression”.

Q: Which results are given for C[C@]12CC[C@@H]3c4ccc(O)cc4CC[C@H]3[C@@H]1CC[C@@H]2O [E2, 17β-estradiol]?
A: ER transcriptional activation (luciferase/B-gal) (ER; hASCs from post-menopausal women): less than a two-fold change; ER transcriptional activation (luciferase/B-gal) (ER; hASCs from pre-menopausal women, E2 10 nM): greater than sixfold; ER transcriptional activation (luciferase/B-gal) (ER; hASCs from pre-menopausal women, E2 0.1 and 1 nm): greater than five-fold

Q: For bleomycin sulfate [BLM], which “Interval weight change at day 7 (mean ± SEM)” value ([6]; day 7 after intratracheal BLM 2.0 U/kg (before ASC administration on day 12)) is on record?
A: The value was −14.2 ± 1.7%^a.

Q: And the “Overall weight change at day 21 (mean ± SEM)” value ([6]; day 21 sacrifice, BLM 2.0 U/kg, ASCs 5×10^5 by tail vein on day 12)?
A: Its value is −27.3 ± 3.7%^aa.

Q: What about the “Collagen type 1α1 mRNA/18s” value [6, 8] of the same compound?
A: The value was 213 ± 63.

Q: What about the “TNF-α mRNA/18S” value [6, 8] of the same compound?
A: The value was 0.80 ± 0.180^a.

Q: What about the “αvintegrin mRNA/18S” value [6, 8] of the same compound?
A: Its value is 1.09 ± 0.14^a.

Q: What about the “increase of AR mRNA in lungs” value (AR mRNA; BLM-treated male mice) of the same compound?
A: Its value is “six-fold increase”.

Q: What about the “R mRNA expression/18s” value (AR mRNA; lungs of BLM-treated male mice (n = 15) vs saline (n = 16), p < 0.05) of the same compound?
A: Its value is 2.0 ± 0.5.

Q: Which results are given for “miR-29a mimic: plasmid containing miR-29a mimic AACCGATTTCAGATGGTGCT (SEQ ID NO: 1), Exiqon (described as plasmid-borne mimic, chemistry not given here)”?
A: MMP-2 activity [4]: decreased MMP-2 activity; Upregulation of miR-29a (RT-PCR) ([5]; co-transfection with miR-199-3p inhibitor): > 5000 fold; MMP-2 activity (zymography) [5, 7]: decreased MMP-2 activity

From patent publication US12097222B2, “Methods for attenuating viral infection and for treating lung injury” (Spiritus Therapeutics, Inc., priority 2019, dated 2024)
